According to patent publication US4410516A, “1-N(αHydroxy-ω-aminoalkanoyl) derivatives of 5,3',4'-trideoxy- or 5,3', 4'-trideoxy-6'-N- methyl- or 5, 3', 4',6"-tetradeoxykannamyci B and production thereof” (Zaidan Hojin Biseibutsu Kagaku Kenkyu Kai, priority 1981, dated 1983):
Values after ≈ are worked out from the molar mass of the structure shown. Read-outs that look alike come from different tables or passages of the source.

Experiments:
[1] = test system: Bacillus subtilis NRRL B-558; test: Minimum inhibitory concentration, serial dilution on nutrient agar; assay type: cell-based; conditions: NRRLB558, 37° C., 18 hours incubation
[2] = test system: Proteus rettgeri GN466; test: as above; assay type: cell-based; conditions: Providencia rettgeri
[3] = test system: Shigella sonnei JS11746; test: as above; assay type: cell-based; conditions: 37° C., 18 hours incubation
Text: (§1) The minimum inhibitory concentration (mcg/ml) of 1-N-[(S)-4-amino-2-hydroxybutyryl]-5,3',4'-trideoxykanamycin B (abbreviated as AHB-trideoxyKMB), 1-N-[(RS)-3-amino-2-hydroxypropionyl]-5,3',4'-trideoxykanamycin B (abbreviated as AHP-trideoxy-KMB) and 1-N-[(S)-4-amino-2-hydroxybutyryl]-5,3',4',6"-tetradeoxykanamycin B (abbreviated as AHB-tetradeoxyKMB) of the formula (II) according to this invention as well as of the new compound 5,3',4',6"-tetradeoxykanamycin B (abbreviated as tetradeoxyKMB) of the formula (III) according to this invention against various microorganisms were determined according to serial dilution method on a nutrient agar medium at 37° C., the estimation being made after 18 hours incubation. For comparison purpose, the minimum inhibitory concentrations of habekacin were also determined in the same manner as stated above.
(§2) The minimum inhibitory concentrations (mcg/ml) of 1-N-[(S)-4-amino-2-hydroxybutyryl]-5,3',4'-trideoxy-6'-N-methylkanamycin B (abbreviated as AHB-trideoxyMKMB), 1-N-[(RS)-3-amino-2-hydroxypropionyl]-5,3',4'-trideoxy-6'-N-methylkanamycin B (abbreviated as AHP-trideoxyMKMB) and 1-N-[(S)-5-amino-2-hydroxyvaleryl]-5,3',4'-trideoxy-6'-N-methylkanamycin B (abbreviated as AHV-trideoxyMKMB) of the formula (IV) according to this invention as well as of the new compound 5,3',4'-trideoxy-6'-N-methylkanamycin B (abbreviated as trideoxyMKMB) of the formula (V) according to this invention against various microorganisms were determined according to serial dilution method on a nutrient agar medium at 37° C., the estimation being made after 18 hours incubation. For comparison purpose, the minimum inhibitory concentrations of 1-N-[(S)-4-amino-2-hydroxybutyryl]-3',4'-dideoxykanamycin B (ie. habekacin) were also determined in the same manner as stated above.

[4] = test system: Shigella flexneri 4b JS11811; test: as above; assay type: cell-based; conditions: 4BJS11811, 37° C., 18 hours incubation
Text: as §1, §2

[5] = test system: Escherichia coli K-12 C 600R/35; test: as above; assay type: cell-based; conditions: K12C600R/35, 37° C., 18 hours incubation
Text: as §1, §2

[6] = test system: Escherichia coli K-12 ML 1630; test: as above; assay type: cell-based; conditions: K12ML1630, 37° C., 18 hours incubation
Text: as §1, §2

[7] = test system: Escherichia coli K-12 J5R 11-2; test: as above; assay type: cell-based; conditions: K12J5R112, 37° C., 18 hours incubation
Text: as §1, §2

[8] = test system: Escherichia coli JR66/W677; test: as above; assay type: cell-based
[9] = test system: Bacillus subtilis PCI 219; test: as above; assay type: cell-based; conditions: PCI219, 37° C., 18 hours incubation
[10] = test system: Pseudomonas aeruginosa K-Ps102; test: as above; assay type: cell-based
[11] = test system: Staphylococcus aureus Smith; test: as above; assay type: cell-based; conditions: 37° C., 18 hours incubation
[12] = test system: Pseudomonas maltophilia GN907; test: as above; assay type: cell-based; conditions: Stenotrophomonas maltophilia, 37° C., 18 hours incubation
[13] = test system: Pseudomonas aeruginosa H11; test: as above; assay type: cell-based
[14] = test system: Escherichia coli K-12 ML 1410 R81; test: as above; assay type: cell-based; conditions: 18 h
[15] = test system: bacteria; conditions: in words, earlier work / other filings; cited from earlier work
[16] = test system: bacteria; test: Antibacterial activity (stated in words); assay type: cell-based
[17] = H11, nutrient agar, 37° C., 18 hours incubation, read-out: MIC
[18] = JR66/W677, nutrient agar, 37° C., 18 hours incubation, read-out: MIC
[19] = KPS102, nutrient agar, 37° C., 18 hours incubation, read-out: MIC
[20] = GN466, nutrient agar, 37° C., 18 hours incubation, read-out: MIC

| Compound | MIC [1] [µg/mL] | MIC ([2]; GN466, 18 h) [µg/mL] | MIC [3] [µg/mL] | MIC [4] [µg/mL] | MIC [5] [µg/mL] | MIC [6] [µg/mL] | MIC [7] [µg/mL] | MIC ([8]; JR66/W677, 18 h) [µg/mL] | MIC [9] [µg/mL] | MIC ([10]; KPS102, 18 h) [µg/mL] | MIC [11] [µg/mL] | MIC [12] [µg/mL] | MIC [13, 17] [µg/mL] | MIC [8, 18] [µg/mL] | MIC [14] [µg/mL] | MIC [10, 19] [µg/mL] | MIC [2, 20] [µg/mL] | MIC ([13]; H11, 18 h) [µg/mL] | antibacterial activity [15] | antibacterial activity [16] |
| --- | --- | --- | --- | --- | --- | --- | --- | --- | --- | --- | --- | --- | --- | --- | --- | --- | --- | --- | --- | --- |
| C[C@H]1O[C@H](O[C@@H]2C[C@H](O[C@H]3O[C@H](CN)CC[C@H]3N)[C@@H](N)C[C@H]2NC(=O)[C@@H](O)CCN)[C@H](O)[C@@H](N)[C@@H]1O [AHB-tetradeoxyKMB, 1-N-[(S)-4-amino-2-hydroxybutyryl]-5,3',4',6"-tetradeoxykanamycin B] | < 0.2 | 1.56 (≈ 3 µM) | 3.13 (≈ 6.01 µM) | 1.56 (≈ 3 µM) | 0.78 (≈ 1.5 µM) | 1.56 (≈ 3 µM) | 0.78 (≈ 1.5 µM) | 1.56 (≈ 3 µM) | < 0.2 | 3.13 (≈ 6.01 µM) | < 0.2 | > 100 | 12.5 (≈ 24 µM) |  |  |  |  |  |  |  |
| NCC[C@H](O)C(=O)N[C@@H]1C[C@H](N)[C@@H](O[C@H]2O[C@H](CN)CC[C@H]2N)C[C@H]1O[C@H]1O[C@H](CO)[C@@H](O)[C@H](N)[C@H]1O [AHB-trideoxyKMB, 1-N-[(S)-4-amino-2-hydroxybutyryl]-5,3',4'-trideoxykanamycin B] | < 0.2 | 3.13 (≈ 5.83 µM) | 3.13 (≈ 5.83 µM) | 3.13 (≈ 5.83 µM) | 0.78 (≈ 1.45 µM) | 1.56 (≈ 2.91 µM) | 0.78 (≈ 1.45 µM) |  | < 0.2 |  | < 0.2 | > 100 | 6.25 (≈ 11.6 µM) | 1.56 (≈ 2.91 µM) | 1.56 (≈ 2.91 µM) | 1.56 (≈ 2.91 µM) |  |  |  |  |
| CNC[C@@H]1CC[C@@H](N)[C@@H](O[C@H]2C[C@@H](O[C@H]3O[C@H](CO)[C@@H](O)[C@H](N)[C@H]3O)[C@H](NC(=O)[C@@H](O)CCN)C[C@@H]2N)O1 [AHB-trideoxyMKMB, 1-N-[(S)-4-amino-2-hydroxybutyryl]-5,3',4'-trideoxy-6'-N-methylkanamycin B] | < 0.2 |  | 3.13 (≈ 5.68 µM) | 0.78 (≈ 1.42 µM) | 1.56 (≈ 2.83 µM) | 1.56 (≈ 2.83 µM) | 1.56 (≈ 2.83 µM) | 1.56 (≈ 2.83 µM) | < 0.2 | 1.56 (≈ 2.83 µM) | < 0.2 | > 100 | 12.5 (≈ 22.7 µM) |  | 1.56 (≈ 2.83 µM) |  | 6.25 (≈ 11.4 µM) |  |  |  |
| NCC(O)C(=O)N[C@@H]1C[C@H](N)[C@@H](O[C@H]2O[C@H](CN)CC[C@H]2N)C[C@H]1O[C@H]1O[C@H](CO)[C@@H](O)[C@H](N)[C@H]1O (stereo partly drawn) [AHP-trideoxyKMB, 1-N-[(RS)-3-amino-2-hydroxypropionyl]-5,3',4'-trideoxykanamycin B] | < 0.2 |  | 6.25 (≈ 12 µM) | 6.25 (≈ 12 µM) | 1.56 (≈ 2.99 µM) | 3.13 (≈ 5.99 µM) | 1.56 (≈ 2.99 µM) |  | < 0.2 |  | < 0.2 | > 100 |  | 3.13 (≈ 5.99 µM) |  | 3.13 (≈ 5.99 µM) | 3.13 (≈ 5.99 µM) | 6.25 (≈ 12 µM) |  |  |
| CNC[C@@H]1CC[C@@H](N)[C@@H](O[C@H]2C[C@@H](O[C@H]3O[C@H](CO)[C@@H](O)[C@H](N)[C@H]3O)[C@H](NC(=O)C(O)CN)C[C@@H]2N)O1 (stereo partly drawn) [AHP-trideoxyMKMB, 1-N-[(RS)-3-amino-2-hydroxypropionyl]-5,3',4'-trideoxy-6'-N-methylkanamycin B] | 0.39 (≈ 0.727 µM) |  | 6.25 (≈ 11.6 µM) | 3.13 (≈ 5.83 µM) | 1.56 (≈ 2.91 µM) | 3.13 (≈ 5.83 µM) | 3.13 (≈ 5.83 µM) | 6.25 (≈ 11.6 µM) | 0.39 (≈ 0.727 µM) | 3.13 (≈ 5.83 µM) | < 0.2 | > 100 | 12.5 (≈ 23.3 µM) |  | 3.13 (≈ 5.83 µM) |  | 12.5 (≈ 23.3 µM) |  |  |  |
| CNC[C@@H]1CC[C@@H](N)[C@@H](O[C@H]2C[C@@H](O[C@H]3O[C@H](CO)[C@@H](O)[C@H](N)[C@H]3O)[C@H](NC(=O)[C@@H](O)CCCN)C[C@@H]2N)O1 [AHV-trideoxyMKMB, 1-N-[(S)-5-amino-2-hydroxyvaleryl]-5,3',4'-trideoxy-6'-N-methylkanamycin B] | < 0.2 | 6.25 (≈ 11.1 µM) | 6.25 (≈ 11.1 µM) | 1.56 (≈ 2.76 µM) | 1.56 (≈ 2.76 µM) | 3.13 (≈ 5.54 µM) | 3.13 (≈ 5.54 µM) | 3.13 (≈ 5.54 µM) | < 0.2 | 1.56 (≈ 2.76 µM) | < 0.2 | > 100 |  |  | 3.13 (≈ 5.54 µM) |  |  | 6.25 (≈ 11.1 µM) |  |  |
| NCC[C@H](O)C(=O)N[C@@H]1C[C@H](N)[C@@H](O[C@H]2O[C@H](CN)CC[C@H]2N)[C@H](O)[C@H]1O[C@H]1O[C@H](CO)[C@@H](O)[C@H](N)[C@H]1O [Habekacin, 1-N-[(S)-4-amino-2-hydroxybutyryl]-3',4'-dideoxykanamycin B, reference compound] | < 0.2 | 12.5 (≈ 22.6 µM) | 6.25 (≈ 11.3 µM) | 6.25 (≈ 11.3 µM) | 1.56 (≈ 2.82 µM) | 3.13 (≈ 5.66 µM) | 1.56 (≈ 2.82 µM) | 6.25 (≈ 11.3 µM) | < 0.2 |  | < 0.2 | > 100 |  |  |  | 3.13 (≈ 5.66 µM) |  | 12.5 (≈ 22.6 µM) | effective against dibekacin-resistant bacteria |  |
| C[C@H]1O[C@H](O[C@@H]2C[C@H](O[C@H]3O[C@H](CN)CC[C@H]3N)[C@@H](N)C[C@H]2N)[C@H](O)[C@@H](N)[C@@H]1O [TetradeoxyKMB, 5,3',4',6"-tetradeoxykanamycin B] | < 0.2 |  | 12.5 (≈ 29.8 µM) | 25 (≈ 59.6 µM) | 6.25 (≈ 14.9 µM) | 12.5 (≈ 29.8 µM) | 6.25 (≈ 14.9 µM) |  | < 0.2 | 12.5 (≈ 29.8 µM) | < 0.2 | > 100 | 25 (≈ 59.6 µM) | > 100 |  |  | 25 (≈ 59.6 µM) |  |  | significantly active against some kinds of bacteria |
